Measured values from article PMC12567096, “An Efficacy- and In Vivo Exposure-Oriented Integrated Study to Investigate the Effective Components of Qishen Granule” (Pharmaceuticals, 2025).

Legend:
OGD/R-induced H9c2 cells = assay: Protective effect on OGD/R-induced H9c2 cells (CCK-8 cell viability); type: cell-based, rat; settings: 1, 10, 25, 50 and 100 μM prior to OGD/R, vs model group
Procedure: (§1) Rat myocardial H9c2 cells (purchased from China Infrastructure of Cell Line Resources, Institute of Basic Medical Sciences, Chinese Academy of Medical Sciences) were cultured in DMEM supplemented with 10% fetal bovine serum (FBS), Penicillin (100 U/mL), and Streptomycin (100 μg/mL) at 37 °C under a humidified atmosphere of 5% CO2 and 95% air. For OGD/R treatment, H9c2 cells were cultured in glucose-free DMEM under hypoxic conditions (95%N2 + 5%CO2) for 4 h at 37 °C followed by complete medium under normal conditions with air (95%) and CO2 (5%) for 2 h. A control group was maintained under normal culture conditions (with glucose-containing DMEM and 5% CO2) without undergoing OGD/R treatment. CCK8 was used to assess cell viability. After treatment, H9c2 cells were seeded in 96-well plates, with each well supplemented with 10 μL of CCK-8 solution and then incubated for 1 h. Finally, the absorbance at 450 nm was detected by a microplate reader (Model […] 200 PRO, TECAN, Grodig, Austria).
(§2) When evaluating the cytotoxicities of the absorbed compounds, the H9c2 cells were seeded in 96-well plates at a density of 1 × 10^4 cells/well; when cells reached 80% confluence, they were treated with 25 and 50 μM of the 24 analytes to screen the non-toxic concentration ranges. Afterward, the protective effects were verified by assessing the cell viability when treating with different concentrations (1, 10, 25, 50, and 100 μM) of the analytes prior to OGD/R treatment.

H9c2 cells = assay: Cytotoxicity on H9c2 cells (CCK-8); type: cell-based, rat; settings: H9c2 cells, n=3; for inhibition at 25 µM / inhibition at 50 µM / inhibition at 100 µM: Rattus norvegicus, read-out: Inhibition rate
Procedure: as §1
as §2, with “they were treated with 25 and 50 μM of the 24 analytes to screen the non-toxic concentration ranges.” left out

[1] = Concentrations of 24 analytes in QSG treated plasma (Table S5); settings: for Exposure level in vivo (in words) / Concentration: QSG treated plasma; for Exposure level in vivo (in words): Table S5; for concentration at 0.5 h / concentration at 1 h / concentration at 0.08 h / concentration at 0.17 h / concentration at 2 h / concentration at 4 h / concentration at 8 h / concentration at 12 h: Sprague Dawley, rat, 7 g/kg; for Concentration: n = 5
[2] = Pharmacokinetic study in rats after oral administration of QSG
Procedure: Ion source parameters were set as follows: temperatures of drying gas and sheath gas were 300 °C and 300 °C, flow rates of drying gas and sheath gas were 7 L/min and 11 L/min, the nebulizer was set at 35 psig, capillary voltage was 3500 V (−), and nozzle voltage was 2000 V (−). […] Chromatographic separations were conducted on a ZORBAX Eclipse Plus C18 column (3.0 × 50 mm, 1.8 μm, Agilent Technologies, California, USA). The mobile phase was composed of 0.1% aqueous FA (A, (v/v)) and 0.1% formic acid methanol (B), the flow rate was set at 0.5 mL/min, and the column oven was maintained at 40 °C.
Protein precipitation was carried out for each time point for plasma samples, calibration samples, or QC samples by introducing four volumes of acetonitrile containing 400 ng/mL of icariin. Then, 10 μL 10% aqueous ascorbic acid (v/v) was spiked into each sample to prevent the oxidation of phenolic compounds. […] An aliquot (450 μL) of the supernatant was transferred and dried under nitrogen vacuum.
The pharmacokinetic parameters were calculated by DAS software (version 2.0) for a non-compartmental analysis.

[3] = rat plasma, single oral 7 g/kg QSG, n = 6

| Molecule | H9c2 cell survival after OGD/R (in words) (OGD/R-induced H9c2 cells) | inhibition at 25 µM (H9c2 cells; 25 μM) [%] | inhibition at 50 µM (H9c2 cells; 50 μM) [%] | inhibition at 100 µM (H9c2 cells; 100 μM) [%] | Inhibition rate (H9c2 cells; 25 μM) [%] | Inhibition rate (H9c2 cells; 50 μM) [%] | Inhibition rate (H9c2 cells; 100 μM) [%] | Concentration ([1]; 0.5 h) [ng/mL] | Concentration ([1]; 1 h) [ng/mL] | further results |
| --- | --- | --- | --- | --- | --- | --- | --- | --- | --- | --- |
| COC(=O)C1=CO[C@@H](O[C@@H]2O[C@H](CO)[C@@H](O)[C@H](O)[C@H]2O)[C@@H]2[C@@H](C)[C@H](O)C[C@H]12 [7-epi-loganin] | significantly improve H9c2 cell survival rates | 2.8 ± 0.9 | 7.1 ± 4.3 | 10.3 ± 3.5 |  |  |  |  |  | Exposure level in vivo (in words) [1]: relatively lower exposure levels; concentration at 0.5 h ([1]; plasma, oral): 1.73 ± 0.49 ng/mL; concentration at 1 h ([1]; plasma, oral): 1.5 ± 0.298 ng/mL |
| COC[C@]12O[C@H]1[C@@H](O)[C@@H]1C=CO[C@@H](O[C@@H]3O[C@H](CO)[C@@H](O)[C@H](O)[C@H]3O)[C@@H]12 [10-methoxyl catalpol] |  |  |  |  | 2.8 ± 0.9 | 5.1 ± 4.3 | 9.1 ± 4.2 | 2.315 ± 0.283 | 1.293 ± 0.135 |  |
| COc1ccc(CCO[C@@H]2O[C@H](CO[C@@H]3OC[C@H](O)[C@H](O)[C@H]3O)[C@@H](OC(=O)/C=C/c3ccc(O)c(OC)c3)[C@H](O[C@@H]3O[C@@H](C)[C@H](O)[C@@H](O)[C@H]3O)[C@H]2O)cc1O [Angoroside C] | significantly improve H9c2 cell survival rates |  |  |  | 3.6 ± 4.5 | 12.7 ± 5.1 | 18.7 ± 1.1 | 4.290 ± 1.023 | 3.109 ± 0.501 | Concentration ([1]; 2 h): 1.029 ± 0.203 ng/mL; Exposure level in vivo (in words) [1]: relatively lower exposure levels |
| COc1ccc(-c2coc3cc(O[C@@H]4O[C@H](CO)[C@@H](O)[C@H](O)[C@H]4O)ccc3c2=O)cc1O [Calycosin-7-O-glucoside, Calycosin-7-O-D-glucoside] |  |  |  |  | -1.2 ± 3.5 | 7.8 ± 6.4 | 11.8 ± 6.1 | 8.612 ± 0.681 | 3.192 ± 1.624 | Concentration ([1]; 0.08 h): 1.161 ± 0.988 ng/mL; Concentration ([1]; 0.17 h): 2.081 ± 1.576 ng/mL; Concentration ([1]; 2 h): 3.096 ± 2.601 ng/mL; Concentration ([1]; 4 h): 1.198 ± 1.103 ng/mL; Concentration ([1]; 8 h): 1.241 ± 0.963 ng/mL; Concentration ([1]; 12 h): 0.536 ± 0.271 ng/mL |
| COc1ccc(-c2coc3cc(O)ccc3c2=O)cc1O [Calycosin] |  | 6.8 ± 3.9 | 6.3 ± 8.3 | 9.3 ± 4.2 |  |  |  |  |  | concentration at 0.08 h ([1]; plasma, oral): 0.966 ± 0.737 ng/mL; concentration at 0.17 h ([1]; plasma, oral): 2.15 ± 0.363 ng/mL; concentration at 0.5 h ([1]; plasma, oral): 2.51 ± 0.672 ng/mL; concentration at 1 h ([1]; plasma, oral): 1.7 ± 0.563 ng/mL; concentration at 2 h ([1]; plasma, oral): 0.825 ± 0.375 ng/mL; concentration at 4 h ([1]; plasma, oral): 0.589 ± 0.46 ng/mL; concentration at 8 h ([1]; plasma, oral): 0.737 ± 0.203 ng/mL; concentration at 12 h ([1]; plasma, oral): 0.647 ± 0.195 ng/mL |
| COc1ccc(-c2coc3cc(O[C@@H]4O[C@H](CO)[C@@H](O)[C@H](O)[C@H]4O)ccc3c2=O)cc1 [Formononetin-7-O-glucoside, Formononetin-7-O-D-glucoside] |  |  |  |  | 0.8 ± 0.9 | 9.1 ± 4.3 | 11.1 ± 2.3 |  |  |  |
| COC[C@@]12CC[C@H](OC)[C@]34C(C([C@H](OC)[C@H]13)[C@]1(OC(C)=O)[C@H]3[C@@H](OC(=O)c5ccccc5)[C@](O)(C[C@H]34)[C@@H](OC)[C@@H]1O)N(C)C2 [Hypaconitine] |  | 13.7 ± 4.1 | 20.8 ± 3.2 | 32.8 ± 1.2 |  |  |  |  |  | concentration at 0.08 h ([1]; in vivo): 0.048 ± 0.019 ng/mL; concentration at 0.17 h ([1]; in vivo): 0.202 ± 0.096 ng/mL; concentration at 0.5 h ([1]; in vivo): 0.308 ± 0.041 ng/mL; concentration at 1 h ([1]; in vivo): 0.34 ± 0.066 ng/mL; concentration at 2 h ([1]; in vivo): 0.331 ± 0.081 ng/mL; concentration at 4 h ([1]; in vivo): 0.212 ± 0.084 ng/mL; concentration at 8 h ([1]; in vivo): 0.071 ± 0.049 ng/mL; concentration at 12 h ([1]; in vivo): 0.005 ± 0.013 ng/mL |
| O=C(/C=C/c1ccc(O[C@@H]2O[C@H](CO)[C@@H](O)[C@H](O)[C@H]2O)cc1)c1ccc(O)cc1O [Isoliquiritin] |  | -18.3 ± 3.6 | 8.5 ± 2.9 | 13.5 ± 2.3 |  |  |  |  |  | concentration at 0.08 h ([1]; in vivo): 0.332 ± 0.496 ng/mL; concentration at 0.17 h ([1]; in vivo): 1.24 ± 0.874 ng/mL; concentration at 0.5 h ([1]; in vivo): 2.54 ± 0.684 ng/mL; concentration at 1 h ([1]; in vivo): 1.31 ± 0.788 ng/mL; concentration at 2 h ([1]; in vivo): 0.456 ± 0.573 ng/mL; concentration at 4 h ([1]; in vivo): 0.075 ± 0.309 ng/mL; concentration at 8 h ([1]; in vivo): 0.078 ± 0.159 ng/mL; concentration at 12 h ([1]; in vivo): 0.158 ± 0.323 ng/mL |
| O=C1C[C@@H](c2ccc(O)cc2)Oc2cc(O)ccc21 [Liquiritigenin] |  |  |  |  | -4.4 ± 2.2 | 2.3 ± 3.3 | 8.5 ± 3.6 | 4.378 ± 0.959 | 3.255 ± 1.246 | Concentration ([1]; 0.08 h): 1.163 ± 0.835 ng/mL; Concentration ([1]; 0.17 h): 3.082 ± 0.977 ng/mL; Concentration ([1]; 2 h): 2.336 ± 1.150 ng/mL; Concentration ([1]; 4 h): 2.064 ± 0.888 ng/mL; Concentration ([1]; 8 h): 2.239 ± 1.209 ng/mL; Concentration ([1]; 12 h): 2.987 ± 1.135 ng/mL |
| O=C1C[C@@H](c2ccc(O[C@@H]3O[C@H](CO)[C@@H](O)[C@H](O)[C@H]3O)cc2)Oc2cc(O)ccc21 [Liquiritin] |  | -7.4 ± 7.5 | 11.6 ± 0.6 | 17.6 ± 1.2 |  |  |  |  |  | concentration at 0.08 h ([1]; plasma, oral): 2.07 ± 1.32 ng/mL; concentration at 0.17 h ([1]; plasma, oral): 11.8 ± 10.9 ng/mL; concentration at 0.5 h ([1]; plasma, oral): 26.8 ± 4.42 ng/mL; concentration at 1 h ([1]; plasma, oral): 17.8 ± 5.29 ng/mL; concentration at 2 h ([1]; plasma, oral): 8.3 ± 2.48 ng/mL; concentration at 4 h ([1]; plasma, oral): 4.02 ± 3.3 ng/mL; concentration at 8 h ([1]; plasma, oral): 2.17 ± 0.609 ng/mL; concentration at 12 h ([1]; plasma, oral): 1.36 ± 2.74 ng/mL |
| COC(=O)C1=CO[C@@H](O[C@@H]2O[C@H](CO)[C@@H](O)[C@H](O)[C@H]2O)[C@@H]2[C@H](C)O[C@@H](O)C[C@H]12 [Morroniside] | significantly improve H9c2 cell survival rates | -10.6 ± 7.6 | 2.1 ± 5.6 | 8.1 ± 3.9 |  |  |  |  |  | Exposure level in vivo (in words) [1]: relatively lower exposure levels; concentration at 0.5 h ([1]; plasma, oral): 3.05 ± 0.802 ng/mL; concentration at 1 h ([1]; plasma, oral): 2.4 ± 0.829 ng/mL |
| O=C(/C=C/c1ccc(O)c(O)c1)O[C@@H]1C[C@@](O)(C(=O)O)C[C@@H](O)[C@@H]1O [Neochlorogenic acid] | significantly improve H9c2 cell survival rates |  |  |  | -12.8 ± 1.3 | 3.8 ± 2.2 | 5.7 ± 2.3 |  |  | AUC0→∞ ([2]; Table S12, rats, oral QSG): 1418 ng·h/mL; AUC0→t [2, 3]: 167.1 ± 68.93 ng·h/mL; Cmax [2, 3]: 68.12 ± 4.044 ng/mL; MRT [2, 3]: 6.104 ± 2.911 h; Tmax [2, 3]: 0.398 ± 0.093 h |
| C=C[C@H]1[C@H](O[C@@H]2O[C@H](CO)[C@@H](O)[C@H](O)[C@H]2O)OC=C(C(=O)O)[C@H]1CC(=O)O [Secologanoside] |  |  |  |  | -15.6 ± 7.9 | 11.0 ± 7.7 | 19.1 ± 3.7 | 4.124 ± 1.235 | 2.135 ± 1.024 | Concentration ([1]; 2 h): 1.274 ± 0.246 ng/mL |
| C=C[C@H]1[C@H](O[C@@H]2O[C@H](CO)[C@@H](O)[C@H](O)[C@H]2O)OC=C(C(=O)OC)[C@H]1CC(=O)O [Secoxyloganin] |  |  |  |  | 3.5 ± 1.2 | 7.9 ± 3.3 | 9.9 ± 2.7 |  |  |  |
| Liquiritin apioside | significantly improve H9c2 cell survival rates |  |  |  | -25.2 ± 3.5 | -16.2 ± 3.6 | -6.1 ± 2.5 |  |  |  |
